Test results: patent US20060160851A1, “Substituted piperidine carbamates” (Novo Nordisk A/S, priority 2003, published 2006)

Target: T1, hormone sensitive lipase (Homo sapiens, UniProt Q05469)
T1 construct: made in house
T1 sequence (Q05469 1-1076): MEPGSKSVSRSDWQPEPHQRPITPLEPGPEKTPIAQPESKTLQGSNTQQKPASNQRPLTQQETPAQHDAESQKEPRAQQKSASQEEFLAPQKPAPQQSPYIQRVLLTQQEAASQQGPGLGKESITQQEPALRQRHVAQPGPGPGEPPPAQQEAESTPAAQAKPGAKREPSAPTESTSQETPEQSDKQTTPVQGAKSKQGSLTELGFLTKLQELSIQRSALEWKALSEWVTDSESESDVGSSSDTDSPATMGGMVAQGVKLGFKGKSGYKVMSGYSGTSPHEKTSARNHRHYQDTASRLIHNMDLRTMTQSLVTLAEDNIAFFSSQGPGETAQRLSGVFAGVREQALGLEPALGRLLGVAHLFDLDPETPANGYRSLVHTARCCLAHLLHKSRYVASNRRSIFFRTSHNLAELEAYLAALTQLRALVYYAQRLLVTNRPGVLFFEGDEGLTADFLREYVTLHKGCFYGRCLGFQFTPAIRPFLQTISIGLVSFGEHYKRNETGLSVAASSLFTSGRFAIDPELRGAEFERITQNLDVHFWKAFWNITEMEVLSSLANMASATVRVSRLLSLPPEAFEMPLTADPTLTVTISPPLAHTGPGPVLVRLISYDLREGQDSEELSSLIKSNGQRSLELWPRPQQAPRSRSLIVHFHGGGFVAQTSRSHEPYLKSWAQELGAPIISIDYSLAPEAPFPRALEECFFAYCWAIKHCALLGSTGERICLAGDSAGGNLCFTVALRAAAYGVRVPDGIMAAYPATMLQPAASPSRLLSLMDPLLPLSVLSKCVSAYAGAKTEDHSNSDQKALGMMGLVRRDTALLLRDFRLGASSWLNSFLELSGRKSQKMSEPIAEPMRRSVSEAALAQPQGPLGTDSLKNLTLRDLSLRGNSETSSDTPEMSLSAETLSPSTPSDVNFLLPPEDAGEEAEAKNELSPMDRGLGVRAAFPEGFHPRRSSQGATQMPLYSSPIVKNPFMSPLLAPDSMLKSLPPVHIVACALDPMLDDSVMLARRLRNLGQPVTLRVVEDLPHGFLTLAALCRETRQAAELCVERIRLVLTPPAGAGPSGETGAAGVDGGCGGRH
Assay: Assay 3190.1: percent inhibition of hormone sensitive lipase by compound at 10 μM (fluorochrome-labeled triacylglyceride emulsion, HSL_FL)
Type: biochemical
Conditions: 10 μM sample concentration; % activity relative to non-inhibited sample (no compound); 30 min preincubation at 25° C., 120 min incubation at 37° C.
From the text: The Hormone-sensitive lipase was provided by Dr. Cecilia Holm, from Lund University Sweden or produced and purified by Novo Nordisk (NN) using the reagents and protocols used by Dr. Holm. The substrates used are: ^3H-labeled triolein (TO) from Amersham, Buckinghamshire, U.K. cat No. TRA191; 5-20 Ci/mmol dissolved in toluene, triolein (Sigma, Cat. No. T-1740), fluorochrome-labeled triacylglyceride (cis-octadec-9-enoic acid 2-[12-(7-nitrobenzo[1,2,5]oxadiazol-4-ylamino)dodecanoyloxy]-1-cis-octadec-9-enoyloxymethyl-ethyl ester) prepared by Novo Nordisk (NN) by conventional methods, and 1,3-(di[^3H]-stearin), 2-(PEG-Biotin)glycerol prepared in collaboration with Amersham Pharmacia Biotech, UK and described in WO 01/073442. Phosphatidyl choline (PC) and phosphatidyl inositol (PI) are from Sigma (St Luis Mo. cat. Nos. P-3556 and P-5954 respectively). All other reagents are of commercial grade and obtained from various commercial sources.
3190.1: Assay for determination of percent inhibition of hormone sensitive lipase by compound at 10 μM sample concentration.
A lipid emulsion with fluorochrome-labeled triacylglyceride and phospholipid is used as substrate with a standard concentration of highly purified HSL (12 μg/mL initial concentration corresponding to 600 ng/mL final concentration). BSA is added as product acceptor receptor. The transfer of the fluorochrome from the lipid phase to the water (BSA) phase changes the fluorescent properties of the fluorochrome. The changes can be monitored on a fluorimeter with an excitation wavelength of 450 nm and an emission wavelength of 545 nm.
Compound and HSL (20 μL compound, 10 μL enzyme and 70 μL PED-BSA buffer) is pre-incubated for 30 min at 25° C. before addition of substrate (100 μL). Amount of formed product is measured after 120 min incubation at 37° C.
Results are given as percent activity relative to a non-inhibited sample (no compound).

Compound	Test 3190.1 HSL_FL % ACTIVITY
4-(4-Carboxymethyl-phenoxy)-piperidine-1-carboxylic acid 4-(2-phenoxy-ethyl)-phenyl ester [Example 92]	3%
4-(4-Carboxymethyl-phenoxy)-piperidine-1-carboxylic acid 4-[2-(1-methyl-1H-tetrazol-5-yloxy)-ethyl]-phenyl ester [Example 94]	6%
CCOC(=O)CCc1ccc(OC2CCN(C(=O)Oc3ccc(Oc4ccc(C(F)(F)F)cn4)cc3)CC2)cc1 [Example 31, -[4-(2-Ethoxycarbonyl-ethyl)-phenoxy]-piperidine-1-carboxylic acid 4-(5-trifluoromethyl-pyridin-2-yloxy)-phenyl ester]	0%

Same assay, conditions: 10 μM sample concentration; % activity relative to non-inhibited sample (no compound); 30 min preincubation at 25° C., 120 min incubation at 37° C.; read-out: Test 3190.1 HSL_FL % ACTIVITY

Compound	activity at 10 µM
CN(CCC1CCN(C(=O)Oc2ccc(Oc3ccc(C(F)(F)F)cn3)cc2)CC1)Cc1ccccc1 [Example 1, 4-[2-(Benzyl-methyl-amino)-ethyl]-piperidine-1-carboxylic acid 4-(5-trifluoromethyl-pyridin-2-yloxy)-phenyl ester]	1%
O=C(Oc1ccc(Oc2ccc(C(F)(F)F)cn2)cc1)N1CCC(Sc2nccn2-c2cccnc2)CC1 [Example 3, 4-(1-Pyridin-3-yl-1H-imidazol-2-ylsulfanyl)-piperidine-1-carboxylic acid 4-(5-trifluoromethyl-pyridin-2-yloxy)-phenyl ester]	5%
O=C(Oc1ccc(Oc2ccc(C(F)(F)F)cn2)cc1)N1CCC(Oc2cccnc2)CC1 [Example 10, 4-(Pyridin-3-yloxy)-piperidine-1-carboxylic acid 4-(5-trifluoromethyl-pyridin-2-yloxy)-phenyl ester]	1%
O=C(Oc1ccc(Oc2ccc(C(F)(F)F)cn2)cc1)N1CCC(On2nccc2Sc2ccccc2)CC1 [Example 12, 4-(5-Phenylsulfanyl-pyrazol-1-yloxy)-piperidine-1-carboxylic acid 4-(5-trifluoromethyl-pyridin-2-yloxy)-phenyl ester]	11%
O=C(Oc1ccc(Oc2ccc(C(F)(F)F)cn2)cc1)N1CCC(Oc2ccc(N3CCN(C4CCCC4)CC3)cc2)CC1 [Example 22, 4-[4-(4-Cyclopentyl-piperazin-1-yl)-phenoxy]-piperidine-1-carboxylic acid 4-(5-trifluoromethyl-pyridin-2-yloxy)-phenyl ester]	4%
O=C(O)c1coc(-c2ccc(OC3CCN(C(=O)Oc4ccc(Oc5ccc(C(F)(F)F)cn5)cc4)CC3)cc2)n1 [Example 36, 4-[4-(4-Carboxy-oxazol-2-yl)-phenoxy]-piperidine-1-carboxylic acid 4-(5-trifluoromethyl-pyridin-2-yloxy)-phenyl ester]	8%
O=C(O)CCc1ccc(OC2CCN(C(=O)Oc3ccc(Oc4ccc(C(F)(F)F)cn4)cc3)CC2)cc1 [Example 37, 4-[4-(2-Carboxy-ethyl)-phenoxy]-piperidine-1-carboxylic acid 4-(5-trifluoromethyl-pyridin-2-yloxy)-phenyl ester]	1%
O=C(O)c1ccc(OC2CCN(C(=O)Oc3ccc(Oc4ccc(C(F)(F)F)cn4)cc3)CC2)cc1 [Example 39, 4-(4-Carboxy-phenoxy)-piperidine-1-carboxylic acid 4-(5-trifluoromethyl-pyridin-2-yloxy)-phenyl ester]	5%
Cc1ccc(Cc2ccc(OC(=O)N3CCC(Oc4ccccc4)CC3)cc2)cn1 [Example 50, 4-Phenoxy-piperidine-1-carboxylic acid 4-(6-methyl-pyridin-3-ylmethyl)-phenyl ester]	3%
CC1(C)CC(=O)N(CCc2ccc(OC(=O)N3CCC(Oc4ccc(C(=O)O)cc4)CC3)cc2)C(=O)C1 [Example 59, 4-(4-Carboxy-phenoxy)-piperidine-1-carboxylic acid 4-[2-(4,4-dimethyl-2,6-dioxo-piperidin-1-yl)-ethyl]-phenyl ester]	31%
O=C(Oc1ccc(Cc2ccc(C(F)(F)F)cc2)cc1)N1CCC(Cc2ncccn2)CC1 [Example 67, 4-Pyrimidin-2-ylmethyl-piperidine-1-carboxylic acid 4-(4-trifluoromethyl-benzyl)-phenyl ester]	4%
O=C(Oc1ccc(Oc2ccc(C(F)(F)F)cn2)cc1)N1CCC(Cc2ccsc2)CC1 [Example 68, 4-Thiophen-3-ylmethyl-piperidine-1-carboxylic acid 4-(5-trifluoromethyl-pyridin-2-yloxy)-phenyl ester]	3%
O=C(O)Cc1ccc(CC2CCN(C(=O)Oc3ccc(Cc4ccc(C(F)(F)F)cc4)cc3)CC2)cc1 [Example 74, 4-(4-Carboxymethyl-benzyl)-piperidine-1-carboxylic acid 4-(4-trifluoromethyl-benzyl)-phenyl ester]	3%

Now from value to compound:

activity at 10 µM	Compound
14%	O=C(O)c1ccc(-c2ccc(OC3CCN(C(=O)Oc4ccc(Oc5ccc(C(F)(F)F)cn5)cc4)CC3)cc2)cc1 [Example 35, 4-(4′-Carboxy-biphenyl-4-yloxy)-piperidine-1-carboxylic acid 4-(5-trifluoromethyl-pyridin-2-yloxy)-phenyl ester]
5%	O=C(O)Cc1ccc(OCC2CCN(C(=O)Oc3ccc(Oc4ccc(C(F)(F)F)cn4)cc3)CC2)cc1 [Example 44, 4-(4-Carboxymethyl-phenoxymethyl)-piperidine-1-carboxylic acid 4-(5-trifluoromethyl-pyridin-2-yloxy)-phenyl ester]
1%	Cc1ccc(Cc2ccc(OC(=O)N3CCC(On4cccn4)CC3)cc2)nc1 [Example 48, 4-(Pyrazol-1-yloxy)-piperidine-1-carboxylic acid 4-(5-methyl-pyridin-2-ylmethyl)-phenyl ester]
1%	C=CCOC(=O)Cc1ccc(OC2CCN(C(=O)Oc3ccc(CCN4C(=O)CC(C)(C)CC4=O)cc3)CC2)cc1 [Example 55, 4-(4-Allyloxycarbonylmethyl-phenoxy)-piperidine-1-carboxylic acid 4-[2-(4,4-dimethyl-2,6-dioxo-piperidin-1-yl)-ethyl]-phenyl ester]
15%	O=C(Nc1ccc(OC(=O)N2CCC(On3cccn3)CC2)nc1)c1ccccc1 [Example 61, 4-(Pyrazol-1-yloxy)-piperidine-1-carboxylic acid 5-benzoylamino-pyridin-2-yl ester]
9%	Cc1ccc(CC2CCN(C(=O)Oc3ccc(Cc4ccc(C(F)(F)F)cc4)cc3)CC2)nc1 [Example 71, 4-(5-Methyl-pyridin-2-ylmethyl)-piperidine-1-carboxylic acid 4-(4-trifluoromethyl-benzyl)-phenyl ester]
5%	O=C(O)Cc1ccc(OC2CCN(C(=O)Oc3ccc(C(=O)NCCc4ccccc4)cc3)CC2)cc1 [Example 85, 4-(4-Carboxymethyl-phenoxy)-piperidine-1-carboxylic acid 4-phenethylcarbamoyl-phenyl ester]
3%	O=C(O)Cc1ccc(OC2CCN(C(=O)Oc3ccc(C(=O)NCC4CCCCC4)cc3)CC2)cc1 [Example 88, 4-(4-Carboxymethyl-phenoxy)-piperidine-1-carboxylic acid 4-(cyclohexylmethyl-carbamoyl)-phenyl ester]
